Consider 17 compounds from patent US9695191B2, “Conformationally constrained, fully synthetic macrocyclic compounds” (POLYPHOR AG, priority 2009, dated 2017).

Read-outs that look alike come from different tables or passages of the source.

The conditions of data set [1]: amide bond.
Data set [2] is described as follows: Metabolic stability, human microsomes. In kind it is in vitro ADME. The following applies: % of the initial 0 minutes value at 60 min, 10 μM, 37° C. The method, then:
(§1) Microsomes from a human 50 donor mixed gender pool and 1:1 mixtures of microsomes from CD-1 mouse single-gender pools are purchased from Celsis (Belgium). The enzymatic reaction is performed in a buffer containing an NADPH regeneration system and microsomes with the following end concentrations: 100 mM potassium phosphate buffer (all from Sigma), 1 mg/mL glucose-6-phosphate, 1 mg/mL β-nicotinamide adenine dinucleotide phosphate (NADP), 0.65 mg/mL magnesium chloride, 0.8 units/mL of glucose-6-phosphate dehydrogenase (prediluted with 5 mM citrate buffer), 10 μM compound and 1 mg/ml microsomal protein. Compounds are incubated at 37° C. in duplicates and samples are taken after 0, 20 and 60 minutes. After acetonitrile precipitation (2 volumes) and HPLC/MS/MS analysis metabolic turnover is expressed in % of the initial 0 minutes value and half life T½ (min) is calculated. Verapamil for human and propranolol for mouse are used as reference and are assayed with every experimental set. • F. P. Guengerich, Analysis and Characterization of Enzymes; in: Principles and Methods of Toxicology; A. W. Hayes (Ed.) Raven Press: New York, 1989, 777-813. • R. Singh et al., In vitro metabolism of a potent HIV-protease inhibitor (141W94) using rat, monkey and human liver S9, Rapid Commun. Mass Spectrom. 1996, 10, 1019-1026. 5. Results

A short description of data set [3]: Metabolic stability, CD-1 mouse microsomes. In kind it is in vitro ADME. The note with it: % of the initial 0 minutes value at 60 min, 10 μM, 37° C. The method, then: as §1
For data set [4] the following is noted: both, CD-1, mouse, 10 μM.
Procedure: (§2) Example compounds were dissolved in DMSO/H2O 90:10 to a final concentration of 10 mM for plasma stability determination and metabolic stability determination.
(§3) Human plasma (3-5 donors, Blutspendedienst SRK, Basel) and CD-1 mouse plasma (mixed gender pool>50 animals, Innovative Research, CA, USA) are both sodium citrate stabilized. The assay is performed in triplicates at 10 μM compound concentration and 37° C. Samples are taken at 0, 15, 60, and 240 minutes and stopped by precipitation with 2 volumes of acetonitrile. The supernatant is collected, evaporated and reconstituted in a 5% acetonitrile solution to be analyzed by HPLC/MS/MS. The resulting peak area counts are expressed in percent of the 0 value and used to determine the endpoint stability in % and the half life T½ in minutes. In order to monitor assay integrity the degradation of propantheline is assayed with every experimental set
For data set [5] the following is noted: human, 10 μM.
Procedure: as §2, §3

On to `CN1C(=O)c2cc(F)ccc2OC[C@@H]2CN(C(=O)OC(C)(C)C)CCN2C(=O)CC[C@H]1C(=O)OCc1ccccc1`, for which the ring closure, yield of all isomers in data set [1] (from CN(C(=O)c1cc(F)ccc1OC[C@@H]1CN(C(=O)OC(C)(C)C)CCN1)[C@@H](CCC(=O)O)C(=O)OCc1ccccc1, T3P, CH2Cl2, 0.57 mM, 25.0 °C, 22.0 h) turned out to be 77%.

In data set [1] (from CN(C(=O)c1cc(F)ccc1OC[C@@H]1C[C@H](NC(=O)OCC[Si](C)(C)C)CN1)[C@@H](CCC(=O)O)C(=O)OCc1ccccc1, T3P, CH2Cl2, 10.0 mM, 25.0 °C, […]), `CN1C(=O)c2cc(F)ccc2OC[C@@H]2C[C@H](NC(=O)OCC[Si](C)(C)C)CN2C(=O)CC[C@H]1C(=O)OCc1ccccc1` yielded a ring closure, yield of all isomers of 61%.

For `CN1CC(=O)N2C[C@@H](NC(=O)OC(C)(C)C)C[C@H]2COc2ccc(F)cc2C(=O)N(C)[C@H](C(=O)OCc2ccccc2)CCC1=O`, the ring closure, yield of all isomers in data set [1] (from CNCC(=O)N1C[C@@H](NC(=O)OC(C)(C)C)C[C@H]1COc1ccc(F)cc1C(=O)N(C)[C@@H](CCC(=O)O)C(=O)OCc1ccccc1, FDPP, DMF, 8.44 mM, 25.0 °C, 22.0 h) was determined as 94%.

`CN1CC(=O)N2C[C@@H](NC(=O)OCC[Si](C)(C)C)C[C@H]2COc2cccc3c2C[C@@](NC(=O)OC(C)(C)C)(CC3)C(=O)N(C)C[C@H](NC(=O)OCc2ccccc2)C1=O` returned a ring closure, yield of all isomers in data set [1] (from CN(CC(=O)O)C(=O)[C@H](CN(C)C(=O)[C@]1(NC(=O)OC(C)(C)C)CCc2cccc(OC[C@@H]3C[C@H](NC(=O)OCC[Si](C)(C)C)CN3)c2C1)NC(=O)OCc1ccccc1, T3P, CH2Cl2, 10.0 mM, 2.0 h) of 44%.

With `CN1CC(=O)N2C[C@H](NC(=O)OC(C)(C)C)C[C@H]2COc2ccc(F)cc2C(=O)N(C)[C@H](C(=O)OCc2ccccc2)CCC1=O`, in data set [1] (from CNCC(=O)N1C[C@H](NC(=O)OC(C)(C)C)C[C@H]1COc1ccc(F)cc1C(=O)N(C)[C@@H](CCC(=O)O)C(=O)OCc1ccccc1, T3P, CH2Cl2, 10.5 mM, 25.0 °C, 22.0 h), the ring closure, yield of all isomers amounted to 87%.

For `CN1CC(=O)N2C[C@H](NC(=O)OC(C)(C)C)C[C@H]2COc2ccc(cc2)C(=O)N(C)[C@H](C(=O)OCc2ccccc2)CCC1=O`, the ring closure, yield of all isomers in data set [1] (from CNCC(=O)N1C[C@H](NC(=O)OC(C)(C)C)C[C@H]1COc1ccc(C(=O)N(C)[C@@H](CCC(=O)O)C(=O)OCc2ccccc2)cc1, T3P, CH2Cl2, 1.05 mM, 3.0 h) is 54%.

Consider `CN1CC(=O)N2C[C@H](NC(=O)OC(C)(C)C)C[C@H]2CSc2cccc(c2)C(=O)N(C)[C@H](C(=O)OCc2ccccc2)CCC1=O`, for which the ring closure, yield of all isomers in data set [1] (from CNCC(=O)N1C[C@H](NC(=O)OC(C)(C)C)C[C@H]1CSc1cccc(C(=O)N(C)[C@@H](CCC(=O)O)C(=O)OCc2ccccc2)c1, T3P, CH2Cl2, 10.0 mM, 25.0 °C, 3.0 h) came to 57%.

`CN1CCC[C@H](NC(=O)OCc2ccccc2)C(=O)N2C[C@@H](NC(=O)OCC[Si](C)(C)C)C[C@H]2COc2cccc(c2)C1=O` yielded a ring closure, yield of all isomers in data set [1] (from CN(CCC[C@H](NC(=O)OCc1ccccc1)C(=O)O)C(=O)c1cccc(OC[C@@H]2C[C@H](NC(=O)OCC[Si](C)(C)C)CN2)c1, T3P, i-Pr2NEt, CH2Cl2, 9.4 mM) of 54%.

In the case of `CN1CCC[C@H](NC(=O)OCc2ccccc2)C(=O)N2C[C@@H](NC(=O)Cc3ccc4ccccc4c3)C[C@H]2COc2cccc(c2)C1=O` [Ex. 184, benzyl N-[(4S,6S,10S)-14-methyl-6-{[2-(2-naphthyl)acetyl]amino}-9,15-dioxo-2-oxa-8,14-diazatricyclo[14.3.1.0^4,8]icosa-1(20),16,18-trien-10-yl]carbamate], the “Metabolic Stability 60 min hum” value in data set [2] is 0%. Moreover, the “Metabolic Stability 60 min mouse” value in data set [3] was found to be 0%. For the same compound, in data set [4], the “Plasma Stability 240 min mouse” value was 58%. For the same compound, the “Plasma Stability 240 min hum” value in data set [5] is reported as 66%.

Take `CN1C[C@H](NC(=O)OCc2ccccc2)C(=O)N(C)CC(=O)N2C[C@@H](NC(=O)Cc3c[nH]c4ccccc34)C[C@H]2COc2cccc(c2)C1=O` [Ex. 200, benzyl N-[(4S,6S,13S)-6-{[2-(1H-indol-3-yl)acetyl]amino}-11,15-dimethyl-9,12,16-trioxo-2-oxa-8,11,15-triazatricyclo[15.3.1.0^4,8]henicosa-1(21),17,19-trien-13-yl]carbamate]: the “Metabolic Stability 60 min hum” value in data set [2] is 12%. Moreover, in data set [3], the “Metabolic Stability 60 min mouse” value is recorded as 26%. Besides, the “Plasma Stability 240 min mouse” value in data set [4] is 100%. Also, the “Plasma Stability 240 min hum” value in data set [5] was 91%.

As for `CC(=O)N[C@H]1CN(C)C(=O)c2cccc(c2)OC[C@@H]2C[C@H](NC(=O)CN(C)C)CN2C(=O)CN(C)C1=O` [Ex. 208, N-[(4S,6S,13S)-13-(acetylamino)-11,15-dimethyl-9,12,16-trioxo-2-oxa-8,11,15-triazatricyclo[15.3.1.0^4,8]henicosa-1(21),17,19-trien-6-yl]-2-(dimethylamino)acetamide], the “Metabolic Stability 60 min hum” value in data set [2] amounted to 84%. Further, the “Metabolic Stability 60 min mouse” value in data set [3] is listed as 100%. In addition, in data set [4], the “Plasma Stability 240 min mouse” value is listed as 90%. For the same compound, the “Plasma Stability 240 min hum” value in data set [5] was found to be 98%.

Regarding `CN(C)CC(=O)N[C@@H]1C[C@H]2COc3cccc(c3)C(=O)N(C)C[C@H](NC(=O)Cc3ccc4ccccc4c3)C(=O)N(C)CC(=O)N2C1` [Ex. 230, 2-(dimethylamino)-N-[(4S,6R,13S)-11,15-dimethyl-13-{[2-(2-naphthyl)acetyl]amino}-9,12,16-trioxo-2-oxa-8,11,15-triazatricyclo[15.3.1.0^4,8]henicosa-1(21),17,19-trien-6-yl]acetamide], the “Metabolic Stability 60 min hum” value in data set [2] came out at 61%. Moreover, the “Metabolic Stability 60 min mouse” value in data set [3] is recorded as 90%. Besides, the “Plasma Stability 240 min mouse” value in data set [4] was 95%. The “Plasma Stability 240 min hum” value in data set [5] was determined as 100%.

With `CN1CC(=O)N2C[C@H](NC(=O)CCc3ccncc3)C[C@H]2COc2ccc(cc2)C(=O)N(C)[C@H](C(=O)NCc2ccc3ccccc3c2)CCC1=O` [Ex. 260, (4S,6R,15S)-11,16-dimethyl-N-(2-naphthylmethyl)-9,12,17-trioxo-6-{[3-(4-pyridinyl)propanoyl]amino}-2-oxa-8,11,16-triazatricyclo[16.2.2.0^4,8]docosa-1(20),18,21-triene-15-carboxamide], the “Metabolic Stability 60 min hum” value in data set [2] is 19%. Moreover, the “Metabolic Stability 60 min mouse” value in data set [3] stood at 69%. In data set [4], the “Plasma Stability 240 min mouse” value came to 100%. The “Plasma Stability 240 min hum” value in data set [5] came out at 100%.

As for `CCN(CC)[C@@H]1C[C@H]2COc3ccc(cc3)C(=O)N(C)[C@H](C(=O)NCc3ccc4ccccc4c3)CCC(=O)N(C)CC(=O)N2C1` [Ex. 262, (4S,6R,15S)-6-(diethylamino)-11,16-dimethyl-N-(2-naphthylmethyl)-9,12,17-trioxo-2-oxa-8,11,16-triazatricyclo [16.2.2.0^4,8]docosa-1(20),18,21-triene-15-carboxamide], the “Metabolic Stability 60 min hum” value in data set [2] is on record as 0%. The “Metabolic Stability 60 min mouse” value in data set [3] is recorded as 4%. The “Plasma Stability 240 min mouse” value in data set [4] was 93%. The “Plasma Stability 240 min hum” value in data set [5] is listed as 100%.

Take `CN1CC(=O)N2C[C@H](NC(=O)CN3CCCC3)C[C@H]2COc2ccc(cc2)C(=O)N(C)[C@H](C(=O)NCc2ccncc2)CCC1=O` [Ex. 266, (4S,6R,15S)-11,16-dimethyl-9,12,17-trioxo-N-(4-pyridinylmethyl)-6-{[2-(1-pyrrolidinyl)acetyl]amino}-2-oxa-8,11,16-triazatricyclo[16.2.2.0^4,8]docosa-1(20),18,21-triene-15-carboxamide]: the “Metabolic Stability 60 min hum” value in data set [2] stood at 100%. Also, the “Metabolic Stability 60 min mouse” value in data set [3] was determined as 98%. Besides, the “Plasma Stability 240 min mouse” value in data set [4] amounted to 74%. In data set [5], the “Plasma Stability 240 min hum” value turned out to be 92%.

As for `CN1CC(=O)N2C[C@H](NC(=O)CCC(=O)O)C[C@H]2COc2ccc(cc2)C(=O)N(C)[C@H](C(=O)NCc2ccncc2)CCC1=O` [Ex. 267, 4-{[(4S,6R,15S)-11,16-dimethyl-9,12,17-trioxo-15-{[(4-pyridinylmethyl)amino]carbonyl}-2-oxa-8,11,16-triazatricyclo [16.2.2.0^4,8]docosa-1(20),18,21-trien-6-yl]amino}-4-oxobutanoic acid], the “Metabolic Stability 60 min hum” value in data set [2] stood at 99%. Moreover, in data set [3], the “Metabolic Stability 60 min mouse” value amounted to 100%. For the same compound, the “Plasma Stability 240 min mouse” value in data set [4] was found to be 79%. Also, the “Plasma Stability 240 min hum” value in data set [5] is 75%.

The compound `CN1C[C@H](NC(=O)OCc2ccccc2)C(=O)N(C)CC(=O)N2C[C@@H](NC(=O)OC(C)(C)C)C[C@H]2COc2cncc(c2)C1=O` [Ex. 272, benzyl N-[(4S,6S,13S)-6-[(tert-butoxycarbonyl)amino]-11,15-dimethyl-9,12,16-trioxo-2-oxa-8,11,15,19-tetraazatricyclo [15.3.1.0^4,8]henicosa-1(21),17,19-trien-13-yl]carbamate] returned a ring closure, yield of all isomers in data set [1] (from CNCC(=O)N1C[C@@H](NC(=O)OC(C)(C)C)C[C@H]1COc1cncc(C(=O)N(C)C[C@H](NC(=O)OCc2ccccc2)C(=O)O)c1, T3P, CH2Cl2, 9.75 mM) of 38%. Besides, the “Plasma Stability 240 min mouse” value in data set [4] is 92%. Further, in data set [5], the “Plasma Stability 240 min hum” value is on record as 95%.
